The numbers were not newly measured in patent US7204982B2, “Compositions and methods for treatment and detection of multiple cancers” (The Regents of the University of California, priority 2002, dated 2007), which cites them from elsewhere.

Counter-ions that a name gives are not always drawn.

Series [1] deals with human glioblastoma cell lines (U87, U373, and U138). The following applies: cell lines lack detectable estrogen receptor expression.
The test system of a further series is malignant gliomas. The note with it: high doses, orally administered; Couldwell et al. 1996.

For `CC/C(=C(\c1ccccc1)c1ccc(OCCN(C)C)cc1)c1ccccc1` [tamoxifen, (Z)-2[p[(1,2-diphenyl-1-butenyl)phenoxyl]-N,N-dimethylamine citrate], in series [1], the cytotoxicity entry is recorded as “responsive to tamoxifen cytotoxicity”. The clinical benefit result with malignant gliomas was “of benefit in some patients with malignant gliomas”.
